In patent US6905841B2, “Enzymatic substrates for detecting Pseudomonas aeruginas” (Biomerieux S.A., priority 1999, dated 2005):
Read-outs that look alike come from different tables or passages of the source.

Assays:
β-alanine aminopeptidase [1] = settings: Pseudomonas fluorescens; 2 strains tested; read after 22 to 24 hours
β-alanine aminopeptidase [2] = settings: Serratia marcescens; 3 strains tested; read after 22 to 24 hours
β-alanine aminopeptidase [3] = settings: Burkholderia vesicularis; 1 strain tested; read after 22 to 24 hours
β-alanine aminopeptidase [4] = settings: Pseudomonas mendocina; 1 strain tested; read after 22 to 24 hours
β-alanine aminopeptidase [5] = settings: Myroïdes spp.; 1 strain tested; read after 22 to 24 hours
β-alanine aminopeptidase [6] = experiment: APIZYM-type test strips with β-alanyl-β-naphthylamide; assay type: cell-based; settings: Shigella spp.; 4 strains
β-alanine aminopeptidase [7] = experiment: as above; assay type: cell-based; settings: Providencia stuartii; five strains
β-alanine aminopeptidase [8] = experiment: as above; assay type: cell-based; settings: Comamonas testosteroni; five strains
β-alanine aminopeptidase [9] = experiment: as above; assay type: cell-based; settings: Burkholderia cepacia; five strains
β-alanine aminopeptidase [10] = experiment: as above; assay type: cell-based; settings: Salmonella arizonae; five strains

| Compound | Number of negative results (β-alanine aminopeptidase [1]) | Number positive results (β-alanine aminopeptidase [1]) | Number of negative results (β-alanine aminopeptidase [2]) | Number positive results (β-alanine aminopeptidase [2]) | Number of negative results (β-alanine aminopeptidase [3]) | Number positive results (β-alanine aminopeptidase [3]) | Number of negative results (β-alanine aminopeptidase [4]) | Number positive results (β-alanine aminopeptidase [4]) | Number of negative results (β-alanine aminopeptidase [5]) | Number positive results (β-alanine aminopeptidase [5]) | β-alanine aminopeptidase activity, result (β-alanine aminopeptidase [6]) | β-alanine aminopeptidase activity, result (β-alanine aminopeptidase [7]) | β-alanine aminopeptidase activity, result (β-alanine aminopeptidase [8]) | β-alanine aminopeptidase activity, result (β-alanine aminopeptidase [9]) | β-alanine aminopeptidase activity, result (β-alanine aminopeptidase [10]) |
| --- | --- | --- | --- | --- | --- | --- | --- | --- | --- | --- | --- | --- | --- | --- | --- |
| NCCC(=O)c1c(N)cc(Cl)c(O)c1Cl | 1 | 1 | 0 | 3 | 1 | 0 | 0 | 1 | 1 | 0 | – | – | – | – | – |
| β-alanyl-β-naphthylamide | – | – | – | – | – | – | – | – | – | – | negative | negative | negative | positive | negative |
